How the values were obtained:
Experiment in all cases: relative viability (nuclei count vs DMSO), 5 days (fraction); higher = more cells survive
[1] = compound: Cc1ccc(C(=O)Nc2cccc(C(F)(F)F)c2)cc1Nc1cncc(C(N)=O)c1 [ALW-II-49-7] + COc1cc2c(Oc3ccc(NC(=O)C4(C(=O)Nc5ccc(F)cc5)CC4)cc3F)ccnc2cc1OCCCN1CCOCC1 [Foretinib] (partner 0.25 µM)
Procedure, shortened: (§1)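 Each reported value is a median over duplicate plates. It expresses relative viability: treated-well nuclei count divided by vehicle-well nuclei count. Lung cancer cell lines in 1536-well plates were dosed by pin tool a day after seeding, alone with one drug or with a fixed anchor-drug dose plus five library-drug doses (not always all listed) in √10 steps, and nuclei were counted after 5 days.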

[2] = compound: Cc1nc(Nc2ncc(C(=O)Nc3c(C)cccc3Cl)s2)cc(N2CCN(CCO)CC2)n1 [Dasatinib] + Nc1nc2[nH]cc(CCc3ccc(C(=O)N[C@@H](CCC(=O)O)C(=O)O)cc3)c2c(=O)[nH]1 [Pemetrexed] (partner 0.2 µM)
Procedure, shortened: as §1

[3] = compound: Cc1nc(Nc2ncc(C(=O)Nc3c(C)cccc3Cl)s2)cc(N2CCN(CCO)CC2)n1 [Dasatinib] + C[C@]1(O)C[C@@H](c2nc(-c3ccc4ccc(-c5ccccc5)nc4c3)c3c(N)nccn32)C1 [Linsitinib] (partner 1 µM)
Procedure, shortened: as §1

[4] = compound: Cc1nc(Nc2ncc(C(=O)Nc3c(C)cccc3Cl)s2)cc(N2CCN(CCO)CC2)n1 [Dasatinib] + COc1cc2c(Oc3ccc(NC(=O)C4(C(=O)Nc5ccc(F)cc5)CC4)cc3F)ccnc2cc1OCCCN1CCOCC1 [Foretinib] (partner 0.25 µM)
Procedure, shortened: as §1

Row | Cell Line | relative viability ([1]; first compound 0.08 µM) | relative viability ([1]; first compound 0.253 µM) | relative viability ([1]; first compound 0.8 µM) | relative viability ([1]; first compound 2.53 µM) | relative viability ([1]; first compound 8 µM) | relative viability ([2]; first compound 0.005 µM) | relative viability ([2]; first compound 0.01581 µM) | relative viability ([2]; first compound 0.05 µM) | relative viability ([2]; first compound 0.1581 µM) | relative viability ([2]; first compound 0.5 µM) | relative viability ([3]; first compound 0.005 µM) | relative viability ([3]; first compound 0.01581 µM) | relative viability ([3]; first compound 0.05 µM) | relative viability ([3]; first compound 0.1581 µM) | relative viability ([3]; first compound 0.5 µM) | relative viability ([4]; first compound 0.005 µM) | relative viability ([4]; first compound 0.01581 µM) | relative viability ([4]; first compound 0.05 µM) | relative viability ([4]; first compound 0.1581 µM) | relative viability ([4]; first compound 0.5 µM)
1 | NCI-H520 | 0.904 | 0.697 | 0.971 | 0.777 | 0.555 | 0.51 | 0.358 | 0.285 | 0.138 | 0.138 | 0.719 | 0.598 | 0.453 | 0.249 | 0.19 | 0.631 | 0.427 | 0.36 | 0.175 | 0.175
2 | NCI-H2085 | 1.08 | 0.876 | 0.989 | 1.06 | 1.02 | 0.743 | 0.756 | 0.491 | 0.23 | 0.205 | 0.773 | 0.789 | 0.644 | 0.232 | 0.172 | 0.855 | 0.783 | 0.338 | 0.198 | 0.173
3 | NCI-H1651 | 0.989 | 0.631 | 0.953 | 0.678 | 0.852 | 0.58 | 0.506 | 0.485 | 0.545 | 0.426 | 0.894 | 0.746 | 0.551 | 0.474 | 0.498 | 0.81 | 0.666 | 0.673 | 0.646 | 0.445
4 | RERF-LC-KJ | 0.84 | 0.874 | 0.941 | 0.933 | 0.902 | 0.53 | 0.466 | 0.405 | 0.471 | 0.457 | 0.896 | 0.845 | 0.862 | 0.67 | 0.634 | 0.888 | 0.831 | 0.989 | 0.824 | 0.779
5 | NCI-H1755 | 0.875 | 1.06 | 0.807 | 0.931 | 0.825 | 0.465 | 0.357 | 0.413 | 0.346 | 0.235 | 0.795 | 0.743 | 0.642 | 0.391 | 0.171 | 0.778 | 0.706 | 0.617 | 0.463 | 0.185
6 | SK-MES-1 | 0.834 | 0.687 | 0.737 | 0.977 | 0.831 | 0.985 | 0.879 | 0.709 | 0.314 | 0.224 | 1.11 | 1.08 | 0.937 | 0.412 | 0.219 | 1.01 | 0.73 | 0.687 | 0.482 | 0.231
7 | NCI-H2126 | 0.805 | 0.998 | 1.21 | 0.998 | 1.11 | 0.736 | 0.608 | 0.636 | 0.499 | 0.344 | 0.636 | 0.582 | 0.589 | 0.422 | 0.264 | 1.18 | 0.799 | 1.2 | 0.852 | 0.425
8 | EPLC-272H | 0.665 |  | 0.712 | 0.643 | 0.917 | 0.385 | 0.356 | 0.286 | 0.154 | 0.198 | 1.24 | 1.28 | 1.46 | 0.92 | 0.338 | 0.769 | 0.631 | 0.634 | 0.214 | 0.127
